Experiments:
[1] = system: adult human dermal fibroblasts (HDFa); assay: CCK-8 viability assay; format: cell-based; settings: HDFa (non-tumor); 72 h; NVDM2 7 and 15 mg per well; doxorubicin 0.1 uM
Description: (§1) Doxorubicin (0.1 uM) was used as a positive control treatment and gelatin beads alone were used for comparison with NVDM2 treatment. All treatments were carried out in 96-well plates in transwells. The compositions of the invention (NVDM2) were administered in two different doses: 7 mg and 15 mg per well. The viability was measured using CCK-8 viability bioassay at 72 hours after administration. […] Data represent the mean±s.d. values of % cell viability upon treatment normalized to the respective untreated sample. Blue line represents 100% of viability. Statistical significances between treated vs untreated samples at the respective time point were tested by ANOVA-I. *, p≤0.05; **; p≤0.01, ***; p≤0.001; ns, not significant. Blue dots: values of individual batches (biological replicates). Each chart represents the average value of the data from all batches tested. DS: lyophilized non irradiated powder of NVDM2; DP: lyophilized powder of NVDM2 after irradiation.
(§2) For this assay the Cell Counting Kit-8 Kit was used (Sigma-Aldrich). […] This coloured product (formazan) is measured using a spectrophotometer. […]
(§3) After O/N incubation, the medium was removed, and the cells were incubated for 72 h in the presence of the different doses of the test item. […] The plate was incubated at 37° C. for 2 hour and then absorbance at 450 nm was measured.

[2] = system: human bone marrow mesenchymal stem cells (hBM-MSCs); assay: CCK-8 viability assay; format: cell-based; settings: hBM-MSCs (non-tumor); 72 h; NVDM2 7 and 15 mg per well; doxorubicin 0.1 uM
Description: as §1, §2, §3

COc1cccc2c1C(=O)c1c(O)c3c(c(O)c1C2=O)C[C@@](O)(C(=O)CO)C[C@@H]3O[C@H]1C[C@H](N)[C@H](O)[C@H](C)O1 [doxorubicin, Doxorubicin]
% cell viability normalized to untreated (CCK-8) [1]: significant inhibitory impact | % cell viability normalized to untreated (CCK-8) [2]: significant inhibitory impact

— patent US20260224632A1, “USE OF A COMPOSITION COMPRISING A NEO-SYNTHESIZED EXTRACELLLAR MATRIX FOR THE TREATMENT OF CANCER, IN PARTICULAR FOR THE INHIBITION OF CANCER VIABILITY, MIGRATION, AND PROLIFERATION” (NOVADIP BIOSCIENCES, priority 2023, published 2026)
